Measured values as given in patent US20260069588A1, “VEPDEGESTRANT FOR USE IN TREATING CANCER” (Arvinas Operation, Inc., priority 2022, published 2026).
Like-named read-outs stand apart in the source and are kept apart here.

Columns and labels:
[1] = tested on: BALB/c 3T3 mouse fibroblasts; assay: In vitro 3T3 phototoxicity; type: cell-based
ER = target: T1, ER (Homo sapiens, UniProt P03372); assay: Tumor ER levels in MCF7 xenograft; type: in vivo, mouse; design: from tissue; host or cells: MCF7/estradiol xenograft tumour in mice; conditions: all doses (3, 10, 30 mg/kg), study termination
T1 sequence (P03372 1-595): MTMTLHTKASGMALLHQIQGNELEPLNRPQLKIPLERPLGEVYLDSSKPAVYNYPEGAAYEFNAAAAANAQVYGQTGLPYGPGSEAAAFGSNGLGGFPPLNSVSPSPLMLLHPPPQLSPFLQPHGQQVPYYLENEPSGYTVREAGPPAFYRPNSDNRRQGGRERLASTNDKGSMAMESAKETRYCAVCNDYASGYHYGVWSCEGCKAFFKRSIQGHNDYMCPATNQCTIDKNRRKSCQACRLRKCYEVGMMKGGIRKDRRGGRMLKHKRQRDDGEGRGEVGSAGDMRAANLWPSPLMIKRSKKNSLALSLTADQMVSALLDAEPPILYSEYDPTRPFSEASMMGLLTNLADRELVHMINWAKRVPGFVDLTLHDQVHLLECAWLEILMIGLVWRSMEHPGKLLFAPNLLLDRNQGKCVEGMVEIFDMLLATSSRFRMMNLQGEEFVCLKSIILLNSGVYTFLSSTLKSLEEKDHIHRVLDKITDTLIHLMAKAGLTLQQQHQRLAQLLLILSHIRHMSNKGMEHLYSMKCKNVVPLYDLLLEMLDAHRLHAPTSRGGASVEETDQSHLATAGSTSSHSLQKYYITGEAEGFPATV
Protocol: The 30 mg/kg dose was associated with a mean AUC0-24 of 5,717 ng·h/mL. The tumor ER levels were reduced by ≥94% at all doses compared to mice administered vehicle only (FIG. 3B).
The 30 mg/kg dose was associated with a mean AUC0-24 of 5,717 ng·h/mL.

[2] = tested on: ER+/HER2− locally advanced/metastatic breast cancer; assay: FIH Study Part B (VERITAC): clinical benefit rate, PFS; type: in vivo, human
Description: The primary endpoint was clinical benefit rate (CBR; rate of confirmed complete or partial response or stable disease ≥24 weeks).

clinical = conditions: human, in vivo; for AUC: AUCtau
Protocol: (§1) Study Design: In the FIH Study: Part A is a Phase I monotherapy dose escalation, and Part B is a Phase 2 monotherapy expansion at 2 RP2D doses (200 mg QD, 500 mg QD).

SALL4 = target: T2, SALL4 (Homo sapiens, UniProt Q9UJQ4); assay: Cereblon neomorphic substrate degradation, SALL4; type: cell-based
T2 construct: host or cells: two unnamed cell lines
T2 sequence (Q96SW2 whole entry partner, species assumed): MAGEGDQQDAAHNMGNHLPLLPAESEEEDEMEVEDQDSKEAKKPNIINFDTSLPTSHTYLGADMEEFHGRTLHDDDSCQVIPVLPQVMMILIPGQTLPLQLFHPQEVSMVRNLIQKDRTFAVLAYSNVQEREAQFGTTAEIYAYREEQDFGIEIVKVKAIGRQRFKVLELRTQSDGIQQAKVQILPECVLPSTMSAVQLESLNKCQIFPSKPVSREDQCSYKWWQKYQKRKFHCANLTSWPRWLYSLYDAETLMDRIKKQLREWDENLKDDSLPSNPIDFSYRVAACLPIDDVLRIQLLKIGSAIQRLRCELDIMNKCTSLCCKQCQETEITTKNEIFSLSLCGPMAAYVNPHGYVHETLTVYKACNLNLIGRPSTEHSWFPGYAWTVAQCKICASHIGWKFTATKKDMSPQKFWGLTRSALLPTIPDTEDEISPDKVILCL
T2 sequence (Q16531 whole entry partner, species assumed): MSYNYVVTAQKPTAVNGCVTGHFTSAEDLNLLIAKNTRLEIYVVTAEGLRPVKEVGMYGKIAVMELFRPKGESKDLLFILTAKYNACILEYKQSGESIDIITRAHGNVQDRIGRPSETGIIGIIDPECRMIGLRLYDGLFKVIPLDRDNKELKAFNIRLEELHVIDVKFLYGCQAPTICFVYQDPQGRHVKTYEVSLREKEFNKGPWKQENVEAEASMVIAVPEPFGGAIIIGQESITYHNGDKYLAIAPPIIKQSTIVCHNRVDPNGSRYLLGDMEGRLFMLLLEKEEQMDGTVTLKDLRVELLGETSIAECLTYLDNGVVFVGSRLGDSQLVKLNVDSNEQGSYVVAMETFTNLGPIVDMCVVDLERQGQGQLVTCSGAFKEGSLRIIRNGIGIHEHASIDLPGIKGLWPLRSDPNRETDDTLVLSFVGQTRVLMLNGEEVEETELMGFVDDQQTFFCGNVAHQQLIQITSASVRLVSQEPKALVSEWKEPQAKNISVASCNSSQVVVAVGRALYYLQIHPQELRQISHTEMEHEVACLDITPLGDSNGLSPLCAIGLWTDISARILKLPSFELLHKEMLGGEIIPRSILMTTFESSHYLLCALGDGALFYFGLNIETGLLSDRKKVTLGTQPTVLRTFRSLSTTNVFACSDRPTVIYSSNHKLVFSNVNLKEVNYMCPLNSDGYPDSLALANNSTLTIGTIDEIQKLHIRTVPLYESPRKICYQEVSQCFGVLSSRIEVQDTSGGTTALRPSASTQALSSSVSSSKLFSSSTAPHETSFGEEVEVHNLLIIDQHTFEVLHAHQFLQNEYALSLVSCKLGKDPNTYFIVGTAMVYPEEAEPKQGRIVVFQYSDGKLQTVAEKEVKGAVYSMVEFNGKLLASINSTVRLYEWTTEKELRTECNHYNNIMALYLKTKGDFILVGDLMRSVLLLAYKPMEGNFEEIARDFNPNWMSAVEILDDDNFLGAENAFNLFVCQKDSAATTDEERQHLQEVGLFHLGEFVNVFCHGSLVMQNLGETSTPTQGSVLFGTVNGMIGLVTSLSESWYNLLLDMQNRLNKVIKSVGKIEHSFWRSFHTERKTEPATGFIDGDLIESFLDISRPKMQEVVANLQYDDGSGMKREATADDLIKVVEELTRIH
T2 sequence (Q9UJQ4 whole entry, species assumed): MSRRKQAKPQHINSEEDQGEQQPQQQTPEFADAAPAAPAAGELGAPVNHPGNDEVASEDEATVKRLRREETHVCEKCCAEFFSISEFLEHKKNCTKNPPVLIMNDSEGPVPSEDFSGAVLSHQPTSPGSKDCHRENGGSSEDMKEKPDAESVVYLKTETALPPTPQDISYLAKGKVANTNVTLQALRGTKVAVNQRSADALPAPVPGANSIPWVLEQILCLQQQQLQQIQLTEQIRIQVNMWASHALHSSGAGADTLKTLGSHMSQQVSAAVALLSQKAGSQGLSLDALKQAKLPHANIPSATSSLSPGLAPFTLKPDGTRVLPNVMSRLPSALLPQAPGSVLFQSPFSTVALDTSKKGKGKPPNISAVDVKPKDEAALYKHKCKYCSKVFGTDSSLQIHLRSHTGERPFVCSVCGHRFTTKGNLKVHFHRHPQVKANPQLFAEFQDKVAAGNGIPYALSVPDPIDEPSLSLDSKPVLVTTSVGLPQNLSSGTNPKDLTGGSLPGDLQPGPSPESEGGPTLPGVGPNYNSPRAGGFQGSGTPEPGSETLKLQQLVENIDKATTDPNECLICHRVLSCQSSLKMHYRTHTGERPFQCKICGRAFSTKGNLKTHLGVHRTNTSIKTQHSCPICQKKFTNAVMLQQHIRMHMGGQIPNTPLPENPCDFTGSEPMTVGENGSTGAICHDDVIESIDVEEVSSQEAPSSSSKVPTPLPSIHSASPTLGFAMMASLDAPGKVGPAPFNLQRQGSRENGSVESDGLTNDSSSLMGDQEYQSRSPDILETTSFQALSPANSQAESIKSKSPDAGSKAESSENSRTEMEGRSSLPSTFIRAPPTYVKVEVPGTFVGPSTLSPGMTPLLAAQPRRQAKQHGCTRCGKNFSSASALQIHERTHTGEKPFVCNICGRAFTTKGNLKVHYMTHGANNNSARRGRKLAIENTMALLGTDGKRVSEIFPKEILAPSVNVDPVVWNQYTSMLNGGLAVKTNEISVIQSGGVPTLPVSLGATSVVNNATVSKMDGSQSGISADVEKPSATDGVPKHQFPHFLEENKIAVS
Description: These drugs bind to cereblon and promote the degradation of novel (neomorphic) substrates.

[3] = in vivo
Description: TEAE's from participants in both studies have been combined and are described below.

[4] = FIH Study Part B dose expansion (VERITAC): adverse events
Protocol: as §1
TEAEs and TRAEs from the clinical study database were coded to system organ class and preferred term using MedDRA version 22.0 and SAEs from the centralized safety database were coded using MedDRA version 25.0. The severity of adverse events was graded according to the NCI CTCAE version 5.0.

AR = AR (Homo sapiens, UniProt P10275); assay: Secondary pharmacodynamics binding, AR; conditions: in vitro
AR, sequence (P10275 whole entry): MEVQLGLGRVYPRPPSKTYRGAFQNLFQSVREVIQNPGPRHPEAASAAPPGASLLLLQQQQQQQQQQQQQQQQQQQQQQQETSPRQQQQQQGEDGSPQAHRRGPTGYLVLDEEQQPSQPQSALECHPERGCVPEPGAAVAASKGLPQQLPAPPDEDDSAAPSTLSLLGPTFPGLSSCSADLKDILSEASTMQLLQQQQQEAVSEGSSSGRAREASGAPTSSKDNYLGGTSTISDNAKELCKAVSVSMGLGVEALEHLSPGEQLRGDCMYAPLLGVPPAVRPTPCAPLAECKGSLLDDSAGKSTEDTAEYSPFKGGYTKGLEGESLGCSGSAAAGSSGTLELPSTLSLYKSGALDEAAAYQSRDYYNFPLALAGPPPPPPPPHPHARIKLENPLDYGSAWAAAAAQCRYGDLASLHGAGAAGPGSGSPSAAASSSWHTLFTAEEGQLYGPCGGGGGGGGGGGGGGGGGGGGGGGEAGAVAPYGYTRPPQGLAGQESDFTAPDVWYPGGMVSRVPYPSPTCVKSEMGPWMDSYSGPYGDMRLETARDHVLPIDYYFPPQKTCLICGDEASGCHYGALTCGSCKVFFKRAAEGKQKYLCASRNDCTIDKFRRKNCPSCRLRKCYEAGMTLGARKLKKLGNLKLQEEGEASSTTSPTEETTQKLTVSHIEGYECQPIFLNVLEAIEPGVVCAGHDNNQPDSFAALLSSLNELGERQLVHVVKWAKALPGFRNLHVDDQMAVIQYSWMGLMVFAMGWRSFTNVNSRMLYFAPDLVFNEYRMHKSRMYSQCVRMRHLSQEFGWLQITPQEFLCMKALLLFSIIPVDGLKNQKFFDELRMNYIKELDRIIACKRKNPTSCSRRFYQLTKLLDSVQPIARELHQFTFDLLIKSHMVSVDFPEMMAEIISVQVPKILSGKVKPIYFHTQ

[5] = 200 mg QD n=35, Nov. 1, 2022, grade 1/2

Structure (SMILES): O=C1CC[C@H](N2Cc3cc(N4CCN(CC5CCN(c6ccc([C@@H]7c8ccc(O)cc8CC[C@@H]7c7ccccc7)cc6)CC5)CC4)ccc3C2=O)C(=O)N1 [Compound A, (S)-3-(5-(4-((1-(4-((1R,2S)-6-hydroxy-2-phenyl-1,2,3,4-tetrahydronaphthalen-1-yl)phenyl)piperidin-4-yl)methyl)piperazin-1-yl)-1-oxoisoindolin-2-yl)piperidine-2,6-dione]
- phototoxicity [1]: not phototoxic
- tumor ER levels reduced vs vehicle (ER): ≥ 94%
- CBR ([2]; 200 mg QD, WT PIK3CA n=20, 95% CI 19-64): 40.0%
- CBR ([2]; 200 mg QD, all evaluable n=35, Nov. 1, 2022, 95% CI 21-55): 37.1%
- CBR ([2]; 200 mg QD, mutant ESR1 n=19, Nov. 1, 2022, 95% CI 24-71): 47.4%
- CBR ([2]; 200 mg QD, mutant PIK3CA n=15, 95% CI 12-62): 33.3%
- CBR ([2]; ITT (n=71)): 38%
- CBR ([2]; ITT ESR1m (n=41)): 51.2%
- PFS ([2]; ITT ESR1m (n=41)): 5.7 months
- CBR ([2]; no prior fulvestrant or chemotherapy in metastatic setting (n=8)): 62.5%
- CBR ([2]; patients with WT ESR1 (n=25)): 20%
- half-life (clinical; 30 mg): 31 h
- Tmax (clinical; 30 mg, Tmax): 4 h
- half-life (clinical; 60 mg): 33 h
- Tmax (clinical; 60 mg, Tmax): 6 h
- half-life (clinical; 100 mg): 29 h
- Tmax (clinical; 100 mg, Tmax): 5.8 h
- half-life (clinical; 120 mg): 27 h
- Cmax (clinical; 120 mg): 404 ng/mL
- Tmax (clinical; 120 mg, Tmax): 5.9 h
- half-life (clinical; 180 mg): 26 h
- Cmax (clinical; 180 mg): 555 ng/mL
- Tmax (clinical; 180 mg, Tmax): 6 h
- half-life (clinical; 200 mg): 23 h
- AUC (clinical; 200 mg): 9110 ng·h/mL
- Cmax (clinical; 200 mg): 534 ng/mL
- Tmax (clinical; 200 mg, Tmax): 5.8 h
- AUC(0-t) (clinical; 250 mg, AUCtau (AUC0-8)): 2920 ng·h/mL
- AUC(0-t) (clinical; 250 mg, AUCtau (AUC0-12)): 20600 ng·h/mL
- Tmax (clinical; 250 mg, Tmax): 6.9 h
- half-life (clinical; 360 mg): 28 h
- Tmax (clinical; 360 mg, Tmax): 5.8 h
- half-life (clinical; 500 mg): 28 h
- Cmax (clinical; 500 mg): 1050 ng/mL
- Tmax (clinical; 500 mg, Tmax): 4.9 h
- half-life (clinical; 700 mg): 12.4 h
- AUC (clinical; 700 mg): 19600 ng·h/mL
- Cmax (clinical; 700 mg): 1450 ng/mL
- Tmax (clinical; 700 mg, Tmax): 5.8 h
- Tmax (clinical; Tmax): 4.1 h
- Tmax (clinical; median Tmax across dose levels): 4 to 7 h
- degradation of SALL4 (SALL4; a different cell line): no SALL4 degradation
- degradation of SALL4 (SALL4; one cell line): some degradation activity
- deaths [3]: No deaths were reported
- TRAE Arthralgia [4, 5]: 11%
- TRAE Fatigue [4, 5]: 40%
- TRAE Nausea [4, 5]: 14%
- TRAE hot flush [4, 5]: 17%
- TRAE increased aspartate aminotransferase [4, 5]: 11%
- Grade 5 TRAEs ([4]; 6 Jun 2023): no Grade 5 TRAEs
- Grade 1 TEAEs ([4]; 6 Jun 2023, N=71): 22.5%
- Grade 1 TRAEs ([4]; 6 Jun 2023, N=71): 29.6%
- Grade 2 TEAEs ([4]; 6 Jun 2023, N=71): 33.8%
- Grade 2 TRAEs ([4]; 6 Jun 2023, N=71): 38.0%
- Grade 3 TEAEs ([4]; 6 Jun 2023, N=71): 28.2%
- Grade 3 TRAE electrocardiogram QT prolonged ([4]; 6 Jun 2023, N=71): 1.4%
- Grade 4 TEAEs ([4]; 6 Jun 2023, N=71): 2.8%
- Grade 5 TEAE ([4]; 6 Jun 2023, N=71): 1.4%
- TEAE Arthralgia ([4]; 6 Jun 2023, N=71): 21.1%
- TEAE Aspartate aminotransferase increased ([4]; 6 Jun 2023, N=71): 12.7%
- TEAE Back pain ([4]; 6 Jun 2023, N=71): 11.3%
- TEAE Constipation ([4]; 6 Jun 2023, N=71): 19.7%
- TEAE Decreased appetite ([4]; 6 Jun 2023, N=71): 15.5%
- TEAE Headache ([4]; 6 Jun 2023, N=71): 11.3%
- TEAE Nausea ([4]; 6 Jun 2023, N=71): 26.8%
- TEAE anemia ([4]; 6 Jun 2023, N=71): 14.1%
- TEAE hot flush ([4]; 6 Jun 2023, N=71): 14.1%
- TRAE Arthralgia ([4]; 6 Jun 2023, N=71): 14.1%
- TRAE Fatigue ([4]; 6 Jun 2023, N=71): 36.6%
- TRAE Nausea ([4]; 6 Jun 2023, N=71): 21.1%
- TRAE hot flush ([4]; 6 Jun 2023, N=71): 12.7%
- patients with TRAEs of Grade ≥3 ([4]; 6 Jun 2023, N=71): 7.0%
- patients with at least 1 TEAE ([4]; 6 Jun 2023, N=71): 88.7%
- patients with at least 1 TRAE ([4]; 6 Jun 2023, N=71): 76.1%
- SAEs ([4]; 6 Jun 2023, N=71, 10): 14.1%
- deaths ([4]; 14 of 71 participants): 19.7%
- SAE Seizure, Grade ([4]; Patient 1, onset day 263, Not related): 3
- SAE Intestinal obstruction, Grade ([4]; Patient 2, onset day 85, Not related): 3
- SAE Muscular weakness, Grade ([4]; Patient 3, onset day 165, Not related): 3
- SAE Back pain, Grade ([4]; Patient 3, onset day 196): 2
- SAE Hepatic hemorrhage, Grade ([4]; Patient 4, onset day 55, Not related): 4
- SAE Hypercalcemia, Grade ([4]; Patient 5, onset day 53, Not related): 4
- SAE Anemia, Grade ([4]; Patient 6, Not related): 3
- SAE Cholangitis, Grade ([4]; Patient 6, Not related): 3
- SAE Thrombocytopenia, Grade ([4]; Patient 6, Possibly related, SUSAR): 3
- SAE Hyperbilirubinemia, Grade ([4]; Patient 6, onset day 15, Possibly related, SUSAR): 4
- SAE Acute respiratory failure, Grade ([4]; Patient 6, onset day 19, Unlikely related): 5
- SAE Upper gastrointestinal hemorrhage, Grade ([4]; Patient 7, onset day 36, Not related): 3
- SAE Spinal cord compression, Grade ([4]; Patient 8, onset day 22, Not related): 3
- SAE Pyrexia, Grade ([4]; Patient 9, onset day 27, Not related): 3
- Grade 5 TRAEs ([4]; cut-off 6 Jun 2022): no Grade 5 TRAEs
- patients reporting SAEs ([4]; cut-off 6 Jun 2022): 9 of 71 patients
- total SAEs ([4]; cut-off 6 Jun 2022): 14 SAEs
- Grade 1 TEAEs ([4]; cut-off 6 Jun 2022, N=71): 29.6%
- Grade 1 TRAEs ([4]; cut-off 6 Jun 2022, N=71): 33.8%
- Grade 2 TEAEs ([4]; cut-off 6 Jun 2022, N=71): 35.2%
- Grade 2 TRAEs ([4]; cut-off 6 Jun 2022, N=71): 31.0%
- Grade 3 TEAE of anemia ([4]; cut-off 6 Jun 2022, N=71): 2 patients
- Grade 3 TEAEs ([4]; cut-off 6 Jun 2022, N=71): 18.3%
- Grade 4 TEAEs ([4]; cut-off 6 Jun 2022, N=71): 2.8%
- Grade 4 TRAE of hyperbilirubinemia ([4]; cut-off 6 Jun 2022, N=71): 1
- Grade 5 TEAE ([4]; cut-off 6 Jun 2022, N=71): 1.4%
- TEAEs of Grade ≥3 ([4]; cut-off 6 Jun 2022, N=71): 22.5%
- patients with TRAEs of Grade ≥3 ([4]; cut-off 6 Jun 2022, N=71): 7.0%
- patients with at least 1 TEAE ([4]; cut-off 6 Jun 2022, N=71): 87.3%
- patients with at least 1 TRAE ([4]; cut-off 6 Jun 2022, N=71): 71.8%
- TEAE leading to discontinuation ([4]; four of 71 patients): 5.6%
- binding (AR): bound
